Measured values: patent US12600714B2, “Substituted pyrazinecarboxamide compounds for treating diseases related to EGFR mutation” (WIGEN BIOMEDICINE TECHNOLOGY (SHANGHAI) CO., LTD., priority 2020, dated 2026)

Columns and labels:
[1] = system: EGFR (del19/T790M/C797S); test: HTRF inhibitory activity assay against EGFR (del19/T790M/C797S) enzyme; format: biochemical
Method in brief: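 Wild-type or mutant EGFR preincubated with serially diluted compound 10 min at 28 °C, then reacted 40 min at room temperature with biotinylated TK substrate and ATP. Phosphorylation detected by HTRF (Eu-cryptate anti-TK antibody, streptavidin-XL665, 60 min), 665/615 nm ratio; % inhibition and IC50 vs control.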

[2] = biological target: Ba/F3 (EGFR^del19/T790M/C797S) triple-mutant cells (Homo sapiens, UniProt P00533, T790M/C797S, cells depend on it, form not given); test: Antiproliferative activity against Ba/F3 (EGFR del19/T790M/C797S) triple-mutant cells, Cell Titer Glow; format: cell-based; conditions: three days after addition of compounds; read-out: Antiproliferative activity BaF3(EGFR^del19/T790M/C797S) IC50
Protocol: (§1) Antiproliferative Activity of the Compounds Disclosed Herein Against Ba/F3 (EGFR^del19/T790M/C797S) Triple-Mutant Cells and A431 (EGFR WT) Cells
(§2) • 3000 Ba/F3 cells carrying EGFR (del19/T790M/C797S) or 2000 A431 cells were seeded in a 384-well plate. After one day, serially diluted compounds were added (up to 500 nM for Ba/F3 cells and up to 10 μM for A431 cells). Three days after the addition of the compounds, Cell Titer Glow was added to evaluate cell growth and the percentage cell growth inhibition by the compounds and the IC50 values were calculated.

[3] = system: A431 (EGFR WT) cells; test: Antiproliferative activity against A431 (EGFR WT) cells, Cell Titer Glow; format: cell-based; conditions: Homo sapiens, A-431, 72 h; three days after addition of compounds; read-out: Antiproliferative activity A431 wild-type (WT) IC50
Protocol: as §1, §2

[4] = biological target: EGFR (L858R/T790M/C797S) (Homo sapiens, UniProt P00533, C797S/L858R/T790M); test: HTRF inhibitory activity assay against EGFR (L858R/T790M/C797S) enzyme; format: biochemical; conditions: read-out: EGFR (L858R/T790M/C797S) inhibition (%) (0.3 nM compound)
Protocol: Inhibitory Activity Assay of the Compounds Disclosed Herein Against EGFR (del19/T790M/C797S), EGFR (L858R/T790M/C797S) or EGFR (WT) Enzymes
The inhibitory effects of the compounds against EGFR (del19/T790M/C797S), EGFR (L858R/T790M/C797S) or EGFR (WT) enzyme activity was determined by using HTRF. The procedures are as follows:
The WT or mutant EGFR proteins were incubated with a serially diluted compounds at 28° C. for 10 min followed by addition of biotin-labeled general tyrosine kinase (TK) substrate and ATP. The mixture was incubated at room temperature for 40 min for reaction. After the termination of the reaction, an Eu3+-Cryptate-labeled antibody against TK and streptavidin-XL665 were added and the mixture was incubated at room temperature for 60 min. The luminescences at 615 nm and 665 nm were detected and the ratio of 665/615 was calculated to quantify the level of TK substrate phosphorylation. Inhibition % and IC50 of the compounds were calculated relative to the control group.

Chain of Ba/F3 (EGFR^del19/T790M/C797S) triple-mutant cells (P00533 with tags, fused parts or gaps DEL746-750/T790M/C797S, form open): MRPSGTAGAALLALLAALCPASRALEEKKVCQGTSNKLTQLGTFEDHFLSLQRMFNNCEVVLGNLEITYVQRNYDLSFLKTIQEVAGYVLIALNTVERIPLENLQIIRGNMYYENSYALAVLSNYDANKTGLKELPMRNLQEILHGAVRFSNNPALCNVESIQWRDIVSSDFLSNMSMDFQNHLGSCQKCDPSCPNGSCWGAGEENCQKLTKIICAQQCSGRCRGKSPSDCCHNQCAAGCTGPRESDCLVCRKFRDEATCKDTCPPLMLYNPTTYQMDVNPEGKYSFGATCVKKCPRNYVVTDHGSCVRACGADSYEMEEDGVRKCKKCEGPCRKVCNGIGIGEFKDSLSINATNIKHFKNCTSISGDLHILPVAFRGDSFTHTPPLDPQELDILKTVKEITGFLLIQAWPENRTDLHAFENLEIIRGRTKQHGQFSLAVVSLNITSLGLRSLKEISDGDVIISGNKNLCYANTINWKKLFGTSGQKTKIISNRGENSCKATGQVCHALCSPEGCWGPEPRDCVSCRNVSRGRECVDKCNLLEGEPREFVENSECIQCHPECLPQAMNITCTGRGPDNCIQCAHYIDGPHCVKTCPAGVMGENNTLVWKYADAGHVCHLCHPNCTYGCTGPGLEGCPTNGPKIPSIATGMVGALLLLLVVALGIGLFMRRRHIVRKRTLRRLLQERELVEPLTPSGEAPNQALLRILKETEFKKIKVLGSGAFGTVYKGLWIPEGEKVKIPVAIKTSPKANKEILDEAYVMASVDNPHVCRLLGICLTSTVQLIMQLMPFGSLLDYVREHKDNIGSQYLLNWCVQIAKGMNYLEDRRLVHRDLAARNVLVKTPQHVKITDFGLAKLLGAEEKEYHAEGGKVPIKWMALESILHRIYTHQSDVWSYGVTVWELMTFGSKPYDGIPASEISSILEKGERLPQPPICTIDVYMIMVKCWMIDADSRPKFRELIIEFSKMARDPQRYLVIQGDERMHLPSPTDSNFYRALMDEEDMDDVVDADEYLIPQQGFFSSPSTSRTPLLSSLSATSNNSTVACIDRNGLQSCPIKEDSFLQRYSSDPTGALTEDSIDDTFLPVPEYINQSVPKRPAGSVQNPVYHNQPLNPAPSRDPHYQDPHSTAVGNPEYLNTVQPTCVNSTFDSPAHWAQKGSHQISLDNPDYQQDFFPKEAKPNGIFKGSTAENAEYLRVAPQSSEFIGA
Chain of EGFR (L858R/T790M/C797S) (P00533 25-1210 T790M/C797S/L858R): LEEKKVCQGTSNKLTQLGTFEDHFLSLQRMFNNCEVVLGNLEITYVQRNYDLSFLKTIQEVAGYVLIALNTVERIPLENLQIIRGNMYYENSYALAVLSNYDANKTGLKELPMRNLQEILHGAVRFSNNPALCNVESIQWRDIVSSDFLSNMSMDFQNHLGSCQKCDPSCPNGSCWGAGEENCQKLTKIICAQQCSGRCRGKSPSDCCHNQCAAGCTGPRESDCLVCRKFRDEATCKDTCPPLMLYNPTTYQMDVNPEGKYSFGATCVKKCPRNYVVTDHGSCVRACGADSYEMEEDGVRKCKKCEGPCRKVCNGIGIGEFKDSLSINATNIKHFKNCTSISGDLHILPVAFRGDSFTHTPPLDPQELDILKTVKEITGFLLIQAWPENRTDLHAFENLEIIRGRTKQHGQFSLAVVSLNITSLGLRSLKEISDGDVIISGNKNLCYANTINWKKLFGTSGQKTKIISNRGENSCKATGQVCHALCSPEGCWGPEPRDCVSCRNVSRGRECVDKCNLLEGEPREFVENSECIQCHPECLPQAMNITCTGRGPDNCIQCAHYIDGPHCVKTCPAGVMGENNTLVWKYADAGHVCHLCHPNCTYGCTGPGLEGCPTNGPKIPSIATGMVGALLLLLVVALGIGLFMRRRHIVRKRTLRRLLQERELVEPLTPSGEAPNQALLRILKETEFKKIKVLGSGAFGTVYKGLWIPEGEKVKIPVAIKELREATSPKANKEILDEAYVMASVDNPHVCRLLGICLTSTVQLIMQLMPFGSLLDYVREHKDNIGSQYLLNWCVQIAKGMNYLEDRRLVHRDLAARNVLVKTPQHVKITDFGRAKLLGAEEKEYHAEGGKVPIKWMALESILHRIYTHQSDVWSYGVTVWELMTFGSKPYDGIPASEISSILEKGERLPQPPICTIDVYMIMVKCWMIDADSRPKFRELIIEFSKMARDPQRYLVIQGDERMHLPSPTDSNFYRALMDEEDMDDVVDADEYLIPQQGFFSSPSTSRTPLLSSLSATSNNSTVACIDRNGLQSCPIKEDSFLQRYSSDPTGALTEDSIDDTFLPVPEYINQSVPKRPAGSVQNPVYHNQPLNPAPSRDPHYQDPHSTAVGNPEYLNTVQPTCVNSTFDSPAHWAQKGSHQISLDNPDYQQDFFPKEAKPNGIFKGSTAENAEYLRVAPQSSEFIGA

GI50 [2] [nM] | IC50 [3] [nM] | inhibition at 0.0003 µM [4] [%] | Compound | EGFR (del19/T790M/C797S) inhibition (%) (0.3 nM compound) [1]
82 | 4100 | – | CN1CCN(c2ccc(Nc3nc(NC4CCOCC4)c(-c4ccncc4)nc3C(N)=O)cc2)CC1 [compound 118] | ++ (++ indicates an inhibition from 20% to 50%)
> 100 | 1600 | – | CN1CCN(C2CCN(c3ccc(Nc4nc(NC5CCOCC5)c(-c5ccc(O)cc5)nc4C(N)=O)cc3)CC2)CC1 [compound 96] | ++ (++ indicates an inhibition from 20% to 50%)
– | – | > 50 | CN1CCN(C2CCN(c3ccc(Nc4nc(NC5CC6(COC6)C5)c(-c5cccc6[nH]ccc56)nc4C(N)=O)cc3F)CC2)CC1 [compound 536] | +++ (+++ indicates an inhibition greater than 50%.)
105 | 120 | – | Cc1c[nH]nc1-c1nc(C(N)=O)c(Nc2ccc(N3CCC(N4CCN(C)CC4)CC3)cc2)nc1NC1CCOCC1 [compound 111] | + (+ indicates an inhibition less than or equal to 20%)
> 100 | 3500 | – | CN1CCN(C2CCN(c3ccc(Nc4nc(NCCS(C)(=O)=O)c(-c5ccccc5)nc4C(N)=O)cc3)CC2)CC1 [compound 54] | + (+ indicates an inhibition less than or equal to 20%)
140 | > 10000 | – | NC(=O)c1nc(-c2ccncc2)c(NC2CCOCC2)nc1Nc1ccc(CN2CCOCC2)cc1 [compound 123] | ++ (++ indicates an inhibition from 20% to 50%)
> 100 | > 10000 | – | NC(=O)c1nc(-c2ccncc2)c(NC2CCOCC2)nc1Nc1ccccc1 [compound 119] | + (+ indicates an inhibition less than or equal to 20%)
40 | 380 | – | CN1CCN(C2CCN(c3ccc(Nc4nc(NC5CCOCC5)c(-c5ccncc5)nc4C(N)=O)cc3F)CC2)CC1 [compound 122] | +++ (+++ indicates an inhibition greater than 50%.)
65 | 540 | – | CN1CCN(C2CCN(c3ccc(Nc4nc(N[C@H]5C[C@@H](O)C5)c(-c5ccccc5)nc4C(N)=O)cc3)CC2)CC1 [compound 31] | +++ (+++ indicates an inhibition greater than 50%.)
25 | 60 | – | CN1CCN(C2CCN(c3ccc(Nc4nc(N[C@H]5C[C@H](O)C5)c(-c5cccc6[nH]ccc56)nc4C(N)=O)cc3)CC2)CC1 [compound 525] | +++ (+++ indicates an inhibition greater than 50%.)
119 | 680 | – | CN1CCN(Cc2ccc(Nc3nc(NC4CCOCC4)c(-c4ccncc4)nc3C(N)=O)cc2)CC1 [compound 120] | + (+ indicates an inhibition less than or equal to 20%)
18 | 50 | – | CN1CCN(C2CCN(c3ccc(Nc4nc(N[C@@H]5CCC[C@@H]5O)c(-c5cccc6[nH]ccc56)nc4C(N)=O)cc3)CC2)CC1 [compound 529] | +++ (+++ indicates an inhibition greater than 50%.)
23 | 190 | – | Cc1cc(-c2nc(C(N)=O)c(Nc3ccc(N4CCC(N5CCN(C)CC5)CC4)cc3)nc2NC2CCOCC2)ccn1 [compound 108] | +++ (+++ indicates an inhibition greater than 50%.)
13 | 70 | – | CN1CCN(C2CCN(c3ccc(Nc4nc(NCC(C)(C)O)c(-c5cccc6[nH]ccc56)nc4C(N)=O)cc3)CC2)CC1 [compound 528] | +++ (+++ indicates an inhibition greater than 50%.)
40 | 340 | – | CN1CCN(C2CCN(c3ccc(Nc4nc(NC5CCC(O)C5)c(-c5ccccc5)nc4C(N)=O)cc3)CC2)CC1 (stereo not drawn) [compound 135, 5-((3-hydroxycyclopentyl)amino)-3-((4-(4-(4-methylpiperazin-1-yl)piperidin-1-yl)phenyl)amino)-6-phenylpyrazine-2-carboxamide] | –
52 | 280 | – | CN1CCN(C2CCN(c3ccc(Nc4nc(NC5CCOCC5)c(-c5cncs5)nc4C(N)=O)cc3)CC2)CC1 [compound 88] | –
21 | 360 | – | CC(C)Nc1nc(Nc2ccc(N3CCC(N4CCN(C)CC4)CC3)cc2)c(C(N)=O)nc1-c1ccncc1 [compound 611] | +++ (+++ indicates an inhibition greater than 50%.)

GI50 [2] [nM] | IC50 [3] [nM] | inhibition at 0.0003 µM [4] [%] | Compound | EGFR (del19/T790M/C797S) inhibition (%) (0.3 nM compound) [1]
> 100 | > 10000 | – | CN(C)c1ccc(Nc2nc(NC3CCOCC3)c(-c3ccncc3)nc2C(N)=O)cc1 [compound 124] | + (+ indicates an inhibition less than or equal to 20%)
57 | 560 | – | Cc1cc(Nc2nc(NC3CCOCC3)c(-c3cccc4[nH]ccc34)nc2C(N)=O)ccc1N1CCC(N2CCN(C)CC2)CC1 [compound 513] | –
36 | 530 | – | CN1CCN(C2CCN(c3ccc(Nc4nc(NC5CCOCC5)c(-c5cc[nH]n5)nc4C(N)=O)cc3C3CC3)CC2)CC1 [compound 421] | –
> 100 | > 10000 | – | CN1CCN(C2CCN(c3ccc(Nc4nc(O[C@@H]5CCN(CCO)C5)c(-c5ccccc5)nc4C(N)=O)cc3)CC2)CC1 [compound 131] | –
26 | 190 | – | CN1CCN(C2CCN(c3ccc(Nc4nc(N[C@H]5C[C@H](O)C5)c(-c5ccccc5)nc4C(N)=O)cc3)CC2)CC1 [compound 32] | +++ (+++ indicates an inhibition greater than 50%.)
57 | 190 | – | COc1cc(Nc2nc(NC3CCOCC3)c(-c3cc[nH]n3)nc2C(N)=O)ccc1N1CCC(N2CCN(C)CC2)CC1 [compound 417] | –
19 | 690 | – | Cc1cc(Nc2nc(NC3CCOCC3)c(-c3cc[nH]n3)nc2C(N)=O)ccc1N1CCC(N2CCN(C)CC2)CC1 [compound 177] | ++ (++ indicates an inhibition from 20% to 50%)
6 | 20 | – | CN1CCN(C2CCN(c3ccc(Nc4nc(NC5CCOCC5)c(-c5ccnc6[nH]ccc56)nc4C(N)=O)cc3)CC2)CC1 [compound 512] | +++ (+++ indicates an inhibition greater than 50%.)
32 | 3700 | – | CC(C)c1cc(Nc2nc(NC3CCOCC3)c(-c3cc[nH]n3)nc2C(N)=O)ccc1N1CCC(N2CCN(C)CC2)CC1 [compound 420] | –
226 | > 10000 | – | Cc1cc(Nc2nc(NC3CCOCC3)c(-c3ccccn3)nc2C(N)=O)ccc1N1CCC(N2CCN(C)CC2)CC1 [compound 213] | –
48 | 1200 | – | CN1CCN(C2CCN(c3ccc(Nc4nc(NC5CCOCC5)c(-c5cccc6[nH]cnc56)nc4C(N)=O)cc3)CC2)CC1 [compound 540] | –
48 | 250 | – | Cc1cc(Nc2nc(NC3CCOCC3)c(-c3ccnc4[nH]ccc34)nc2C(N)=O)ccc1N1CCC(N2CCN(C)CC2)CC1 [compound 514] | –
48 | > 2000 | – | CN1CCN(C2CCN(c3ccc(Nc4nc(NC5CCOCC5)c(-c5cccnc5)nc4C(N)=O)cc3)CC2)CC1 [compound 37] | + (+ indicates an inhibition less than or equal to 20%)
98 | 330 | – | COc1cc(Nc2nc(NC3CC4(COC4)C3)c(-c3cc[nH]n3)nc2C(N)=O)ccc1N1CCC(N2CCN(C)CC2)CC1 [compound 504] | –
32 | 360 | – | CC(C)Nc1nc(Nc2ccc(N3CCC(N4CCN(C)CC4)CC3)cc2)c(C(N)=O)nc1-c1cc[nH]n1 [compound 616] | +++ (+++ indicates an inhibition greater than 50%.)
> 100 | 460 | – | Cc1n[nH]cc1-c1nc(C(N)=O)c(Nc2ccc(N3CCC(N4CCN(C)CC4)CC3)cc2)nc1NC1CCOCC1 [compound 110] | + (+ indicates an inhibition less than or equal to 20%)
